Results taken from ChEMBL document CHEMBL5233249, “Recent advancements in the development of heterocyclic anti-inflammatory agents” (Eur J Med Chem, 2020).
Values belong to the molecule of their own block, whether it stands above or below them.

Legend:
[1] = tested on: Rattus norvegicus; assay: Anti-inflammatory activity against formalin-induced foot paw edema in PO dosed rat at 10 mg/kg assessed as inhibition of edema measured after 1 hr relative to control; assay type: functional; design: scale not given: the % may be the effect or the level left
[2] = tested on: Mus musculus; assay: Anti-inflammatory activity in Carrageenan-induced paw edema mouse model assessed as inhibition of granuloma measured after 24 hrs relative to control; assay type: functional
[3] = tested on: Rattus norvegicus; assay: Anti-inflammatory activity against formalin-induced foot paw edema in Wistar rat at 5 mg/kg, po assessed as inhibition of edema measured after 4 hr relative to control; assay type: functional
[4] = tested on: Mus musculus; assay: Analgesic activity in PO dosed Swiss albino mouse assessed as protection of paw edema measured after 2 hrs at 20 mg/kg relative to control; assay type: functional
[5] = tested on: Rattus norvegicus; assay: Ulcerogenic activity in Swiss albino Wistar rat assessed as ulcer lesion score at 100 mg/kg, po; assay type: functional
[6] = tested on: Rattus norvegicus; assay: Anti-inflammatory activity in Carageenan-induced foot paw edema in Sprague-Dawley rat at 50 mg/kg assessed as reduction in paw edema volume relative to control; assay type: functional; design: scale not given: the % may be the effect or the level left
[7] = molecular target: T1, Prostaglandin G/H synthase 1 (Ovis aries, UniProt P05979); assay: Inhibition of ovine COX-1 by EIA method
T1 sequence (P05979 whole entry): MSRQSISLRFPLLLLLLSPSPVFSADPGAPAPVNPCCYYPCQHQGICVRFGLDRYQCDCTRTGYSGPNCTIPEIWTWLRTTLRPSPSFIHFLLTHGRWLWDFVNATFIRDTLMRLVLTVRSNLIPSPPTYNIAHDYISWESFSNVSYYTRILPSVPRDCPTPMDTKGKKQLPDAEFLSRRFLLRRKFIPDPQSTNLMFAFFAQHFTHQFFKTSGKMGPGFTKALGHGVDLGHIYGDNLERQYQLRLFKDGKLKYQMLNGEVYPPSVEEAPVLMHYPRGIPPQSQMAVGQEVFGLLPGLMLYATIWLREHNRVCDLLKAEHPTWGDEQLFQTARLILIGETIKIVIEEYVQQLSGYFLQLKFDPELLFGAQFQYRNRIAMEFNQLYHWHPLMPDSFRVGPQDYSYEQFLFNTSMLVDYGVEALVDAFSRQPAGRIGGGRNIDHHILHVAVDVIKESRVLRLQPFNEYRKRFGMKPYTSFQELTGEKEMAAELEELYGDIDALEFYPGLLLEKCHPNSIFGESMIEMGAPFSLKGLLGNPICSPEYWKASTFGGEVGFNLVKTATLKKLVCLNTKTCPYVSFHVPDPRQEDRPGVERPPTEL

[8] = tested on: Mus musculus; assay: Anti-inflammatory activity against Carrageenan-induced paw edema in mouse model assessed as inhibition of edema at 100 mg/kg measured after 4 hrs relative to control; assay type: functional; design: scale not given: the % may be the effect or the level left
[9] = tested on: Rattus norvegicus; assay: Anti-inflammatory activity in Carrageenan-induced paw edema in PO dosed rat model at 10 mg/kg assessed as inhibition of paw edema measured after 4 hrs relative to control; assay type: functional
[10] = tested on: Rattus norvegicus; assay: Anti-inflammatory activity in Carrageenan-induced paw edema in PO dosed rat model at 20 mg/kg assessed as inhibition of paw edema measured after 4 hrs relative to control; assay type: functional
[11] = tested on: Rattus norvegicus; assay: Anti-inflammatory activity in Carrageenan-induced paw edema in Wistar albino rat assessed as inhibition of edema measured after 5 hr relative to control; assay type: functional; design: scale not given: the % may be the effect or the level left
[12] = tested on: Rattus norvegicus; assay: Anti-inflammatory activity in Carrageenan-induced paw edema in Wistar albino rat assessed as inhibition of edema measured after 3 hr relative to control; assay type: functional; design: scale not given: the % may be the effect or the level left
[13] = molecular target: T2, Prostaglandin G/H synthase 2 (Homo sapiens, UniProt P35354); assay: Inhibition of human COX-2 assessed as by fluorescence based microplate reader assay
T2 sequence (P35354 whole entry): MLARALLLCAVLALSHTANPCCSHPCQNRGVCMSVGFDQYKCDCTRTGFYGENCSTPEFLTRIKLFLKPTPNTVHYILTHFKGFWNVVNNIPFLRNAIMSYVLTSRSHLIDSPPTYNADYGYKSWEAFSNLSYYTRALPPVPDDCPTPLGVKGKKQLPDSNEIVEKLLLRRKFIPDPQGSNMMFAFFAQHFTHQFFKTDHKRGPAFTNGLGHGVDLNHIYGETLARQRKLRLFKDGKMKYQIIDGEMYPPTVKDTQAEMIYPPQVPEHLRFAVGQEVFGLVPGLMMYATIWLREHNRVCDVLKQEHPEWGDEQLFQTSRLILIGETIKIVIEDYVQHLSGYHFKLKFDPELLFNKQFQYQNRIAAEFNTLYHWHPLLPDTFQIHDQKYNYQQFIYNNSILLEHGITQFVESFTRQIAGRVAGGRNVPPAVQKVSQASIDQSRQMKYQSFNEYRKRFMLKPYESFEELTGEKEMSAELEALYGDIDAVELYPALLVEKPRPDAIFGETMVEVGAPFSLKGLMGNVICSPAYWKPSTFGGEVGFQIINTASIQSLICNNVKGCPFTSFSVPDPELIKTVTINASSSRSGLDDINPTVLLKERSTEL

[14] = tested on: Rattus norvegicus; assay: Anti-inflammatory activity in Carrageenan-induced paw edema in Wistar albino rat assessed as inhibition of edema measured after 1 hr relative to control; assay type: functional; design: scale not given: the % may be the effect or the level left
[15] = Selectivity index, ratio of IC50 for ovine COX1 to IC50 for recombinant human COX2
[16] = tested on: Rattus norvegicus; assay: Anti-inflammatory activity in Carrageenan-induced paw edema in Wistar albino rat assessed as inhibition of edema measured after 3 hrs relative to control; assay type: functional
[17] = tested on: Rattus norvegicus; assay: Anti-ulcerative activity in aspirin induced Wistar rat ulcer model assessed as inhibition of ulcer index at 20 mg/kg,po; assay type: functional
[18] = tested on: Rattus norvegicus; assay: Anti-inflammatory activity in Carrageenan-induced paw edema in PO dosed Swiss albino rat model at 10 mg/kg assessed as inhibition in volume of edema measured after 1 hrs relative to control; assay type: functional
[19] = tested on: Rattus norvegicus; assay: Anti-inflammatory activity in Carrageenan-induced paw edema in Wistar albino rat assessed as inhibition of paw edema measured after 2 hr relative to control; assay type: functional
[20] = tested on: Rattus norvegicus; assay: Anti-inflammatory activity in Carrageenan-induced paw edema in Wistar albino rat assessed as inhibition of paw edema measured after 1 hr relative to control; assay type: functional
[21] = tested on: Rattus norvegicus; assay: Anti-inflammatory activity against Carrageenan-induced paw edema in Wistar albino rat ulcerogenic activity assessed as reduction in severity index; assay type: functional
[22] = tested on: Rattus norvegicus; assay: Anti-inflammatory activity in Carrageenan-induced paw edema in Wistar albino rat assessed as inhibition of paw edema measured after 3 hr relative to control; assay type: functional
[23] = tested on: RAW264.7; assay: Anti-inflammatory activity in mouse RAW264.7 cells assessed as LPS-induced reduction in NO production measured after 24 hrs; assay type: functional, cell-based; details: RAW264.7, 24 h
[24] = tested on: RAW264.7; assay: Anti-inflammatory activity in mouse RAW264.7 cells assessed as inhibition of LPS-induced NO production measured after 24 hrs; assay type: functional, cell-based; details: RAW264.7, 24 h

Compound: O=C(O)Cc1ccccc1Nc1c(Cl)cccc1Cl [DICLOFENAC]
Activity [1]: 30.43% | inhibition (INH) [2]: 36.1% | inhibition in vivo at 5 mg/kg [3]: 50% | Activity [4]: 65% | Activity [5]: 32.5 mm

IC50 [7]: 0.075 µM
Compound: O=C(NNC(=S)NCc1ccccc1)c1ccc(C2=CN3c4ccccc4NC3S2)nc1 (centres undefined)
Activity [6]: 75.9%

Compound: O=C(NCn1c(CCl)nc2ccccc21)c1ccc(Cl)cc1
Activity [8]: 66.66% | Activity [5]: 12.25 mm

Compound: Cc1nn(-c2ccccc2)c2c1C(c1ccc([N+](=O)[O-])cc1)N1C=CC=NC1=N2 (centres undefined)
inhibition in vivo at 10 mg/kg [9]: 73% | inhibition in vivo at 20 mg/kg [10]: 80%

IC50 [7]: 123 µM | IC50 [13]: 0.1 µM
Compound: CSc1nn(-c2ccc(S(C)(=O)=O)cc2)c2ncnc(NCC(=O)/N=C/c3ccco3)c12
Activity [11]: 88% | Activity [12]: 79% | Activity [14]: 2%

IC50 [7]: 0.044 µM
Compound: CC1=C(c2ccc(C(=O)NNC(=S)Nc3ccccc3)cn2)SC2Nc3ccccc3N12 (centres undefined)
Activity [6]: 79.5%

Selectivity Index [15]: 65.7
Compound: CCc1c(-c2ccccc2)n(C(=O)c2ccc(F)cc2)c2ccc(S(C)(=O)=O)cc12
inhibition (INH) [16]: 90.5% | UI [17]: 7.3

Compound: Cc1c(-c2ccccc2)n(C(=O)c2ccc(Cl)cc2)c2ccc(S(C)(=O)=O)cc12
inhibition in vivo at 10 mg/kg [18]: 73.5%

Compound: Cc1c(-c2ccccc2)n(C(=O)c2ccccc2)c2ccc(S(C)(=O)=O)cc12
inhibition in vivo at 10 mg/kg [18]: 73.1%

Compound: Cc1ccccc1-c1nnc(Cn2c(CN3CCOCC3)nc3ccccc32)o1
inhibition (INH) [19]: 68.31% | inhibition (INH) [20]: 62.29% | Activity [21]: 0.32 mm | inhibition (INH) [22]: 31.25%

IC50 [23]: 7.41 µM | IC50 [24]: 15.4 µM
Compound: COc1cc(-c2cc3ccccc3nc2C(=O)c2ccc(F)cc2)cc(OC)c1OC
